Test results published in PubChem BioAssay (NCI).
Several values for one entry are separate records, joined by “and”; a condition that tells them apart may be missing. Equal entries are not always repeated.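 Dose response: 5 concentrations. Exposure: 48 h. Format: 96-well plates. Endpoint: linear interpolation; highest concentration if not reached. Here, GI50 denotes the concentration required for 50% inhibition of growth. TGI denotes the concentration required for complete inhibition of growth.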

Legend:
Experiment in all cases: NCI tumour cell line growth inhibition, 48 h
DU-145 prostate = tested on: DU-145 prostate
IGROV1 ovarian = tested on: IGROV1 ovarian
MALME-3M melanoma = tested on: MALME-3M melanoma
MCF7 breast = tested on: MCF7 breast
MDA-MB-435 = tested on: MDA-MB-435
NCI-H226 lung = tested on: NCI-H226 lung
NCI-H23 lung = tested on: NCI-H23 lung
PC-3 prostate = tested on: PC-3 prostate
SF-295 CNS = tested on: SF-295 CNS
SK-OV-3 ovarian = tested on: SK-OV-3 ovarian
SN12C renal = tested on: SN12C renal
SW-620 colon = tested on: SW-620 colon
T-47D breast = tested on: T-47D breast
UO-31 renal = tested on: UO-31 renal
MOLT-4 leukemia = tested on: MOLT-4 leukemia
NCI-H460 lung = tested on: NCI-H460 lung
OVCAR-3 ovarian = tested on: OVCAR-3 ovarian
OVCAR-4 ovarian = tested on: OVCAR-4 ovarian
MDA-N = tested on: MDA-N

N#Cc1c(N)oc(-c2cccc([N+](=O)[O-])c2)c1C#N
TGI (DU-145 prostate): > 100 µM
TGI (IGROV1 ovarian): 65.3 µM
TGI (MALME-3M melanoma): 61.6 µM
TGI (MCF7 breast): > 100 µM
TGI (MDA-MB-435): > 100 µM
TGI (NCI-H226 lung): > 100 µM
TGI (NCI-H23 lung): 44 µM
TGI (PC-3 prostate): > 100 µM
TGI (SF-295 CNS): > 100 µM
TGI (SK-OV-3 ovarian): > 100 µM
TGI (SN12C renal): 90.6 µM
TGI (SW-620 colon): 62 µM
TGI (T-47D breast): > 100 µM
TGI (UO-31 renal): 30.8 µM

CN(CCO)c1nc2c(c(=O)[nH]1)CCC2
TGI (IGROV1 ovarian): > 100 µM
TGI (MALME-3M melanoma): > 100 µM
TGI (MOLT-4 leukemia): > 100 µM
TGI (NCI-H226 lung): > 100 µM
TGI (NCI-H23 lung): > 100 µM
TGI (NCI-H460 lung): > 100 µM
TGI (OVCAR-3 ovarian): > 100 µM
TGI (OVCAR-4 ovarian): > 100 µM
TGI (SF-295 CNS): > 100 µM
TGI (SK-OV-3 ovarian): > 100 µM
TGI (SN12C renal): > 100 µM
TGI (SW-620 colon): > 100 µM
TGI (UO-31 renal): > 100 µM

CC(=O)C1=CSC2[C@H](NC(=O)Cc3ccccc3)C(=O)N2C1C(=O)OC(c1ccccc1)c1ccccc1 (stereo not given in full)
TGI (IGROV1 ovarian): > 100 µM
TGI (MALME-3M melanoma): > 100 µM
TGI (MOLT-4 leukemia): > 100 µM
TGI (NCI-H226 lung): > 100 µM
TGI (NCI-H23 lung): > 100 µM
TGI (OVCAR-3 ovarian): > 100 µM
TGI (OVCAR-4 ovarian): > 100 µM
TGI (SF-295 CNS): > 100 µM
TGI (SK-OV-3 ovarian): > 100 µM
TGI (SN12C renal): > 100 µM
TGI (SW-620 colon): > 100 µM
TGI (UO-31 renal): > 100 µM

CCOC1(COP(=O)(OCc2ccccc2)OCc2ccccc2)COC(COP(=O)(OCc2ccccc2)OCc2ccccc2)(OCC)CO1 (stereo not given)
TGI (IGROV1 ovarian): > 100 µM
TGI (MALME-3M melanoma): > 100 µM
TGI (MOLT-4 leukemia): > 100 µM
TGI (NCI-H226 lung): > 100 µM
TGI (NCI-H23 lung): > 100 µM
TGI (NCI-H460 lung): > 100 µM
TGI (OVCAR-3 ovarian): > 100 µM
TGI (OVCAR-4 ovarian): > 100 µM
TGI (SF-295 CNS): > 100 µM
TGI (SK-OV-3 ovarian): > 100 µM
TGI (SN12C renal): > 100 µM
TGI (SW-620 colon): > 100 µM

CNC(=O)N1CN(c2ccccc2)C2(CCN(CCCC(=O)c3ccc(F)cc3)CC2)C1=O
TGI (DU-145 prostate): > 100 µM
TGI (IGROV1 ovarian): 89.1 µM
TGI (MALME-3M melanoma): 35.3 µM
TGI (MCF7 breast): 16 µM
TGI (MOLT-4 leukemia): 33.6 µM
TGI (NCI-H226 lung): 79.4 µM
TGI (NCI-H23 lung): 87.5 µM
TGI (OVCAR-3 ovarian): 41.6 µM
TGI (PC-3 prostate): > 100 µM
TGI (SF-295 CNS): 31 µM
TGI (SK-OV-3 ovarian): 79.9 µM
TGI (SN12C renal): 75.4 µM
TGI (SW-620 colon): > 100 µM
TGI (T-47D breast): 33.8 µM
TGI (UO-31 renal): 28.1 µM

COC(=O)c1c2n(c3ccccc13)C[C@H]1OC(C)(C)O[C@@H]21
TGI (DU-145 prostate): > 100 µM
TGI (IGROV1 ovarian): > 100 µM
TGI (MALME-3M melanoma): > 87.6 µM
TGI (MCF7 breast): > 100 µM
TGI (MDA-MB-435): > 100 µM
TGI (MOLT-4 leukemia): > 100 µM
TGI (NCI-H226 lung): > 100 µM
TGI (NCI-H23 lung): > 100 µM
TGI (NCI-H460 lung): > 100 µM
TGI (OVCAR-3 ovarian): > 100 µM
TGI (OVCAR-4 ovarian): > 100 µM
TGI (PC-3 prostate): > 100 µM
TGI (SF-295 CNS): > 100 µM
TGI (SK-OV-3 ovarian): > 100 µM
TGI (SN12C renal): > 100 µM
TGI (SW-620 colon): > 100 µM
TGI (T-47D breast): > 100 µM
TGI (UO-31 renal): > 100 µM

CCOC(=O)c1nc2ccc([N+](=O)[O-])cc2c2c1CCO2
TGI (IGROV1 ovarian): > 100 µM
TGI (MALME-3M melanoma): > 100 µM
TGI (MOLT-4 leukemia): > 100 µM
TGI (NCI-H226 lung): > 100 µM
TGI (NCI-H23 lung): > 100 µM
TGI (NCI-H460 lung): > 100 µM
TGI (OVCAR-3 ovarian): > 100 µM
TGI (OVCAR-4 ovarian): > 100 µM
TGI (SF-295 CNS): > 100 µM
TGI (SK-OV-3 ovarian): > 100 µM
TGI (SN12C renal): > 100 µM
TGI (SW-620 colon): > 100 µM

CC12NN=NC1C(=O)NC2=O (stereo not given)
TGI (IGROV1 ovarian): > 100 µM
TGI (MOLT-4 leukemia): > 100 µM
TGI (NCI-H226 lung): > 100 µM
TGI (NCI-H23 lung): > 100 µM
TGI (NCI-H460 lung): > 100 µM
TGI (OVCAR-3 ovarian): > 100 µM
TGI (OVCAR-4 ovarian): > 100 µM
TGI (SF-295 CNS): > 100 µM
TGI (SK-OV-3 ovarian): > 100 µM
TGI (SN12C renal): > 100 µM
TGI (SW-620 colon): > 100 µM
TGI (UO-31 renal): > 100 µM

C=CCc1cc(OC)c2c(c1)C(O)CC(c1ccccc1)O2 (stereo not given)
TGI (IGROV1 ovarian): > 100 µM
TGI (MALME-3M melanoma): > 100 µM
TGI (MOLT-4 leukemia): > 100 µM
TGI (NCI-H226 lung): > 100 µM
TGI (NCI-H23 lung): > 100 µM
TGI (NCI-H460 lung): > 100 µM
TGI (OVCAR-3 ovarian): > 100 µM
TGI (OVCAR-4 ovarian): > 100 µM
TGI (SF-295 CNS): > 100 µM
TGI (SK-OV-3 ovarian): > 100 µM
TGI (SN12C renal): > 100 µM
TGI (SW-620 colon): > 100 µM
TGI (UO-31 renal): > 100 µM

CCOC(=O)CSc1nc(-c2ccccc2)c(C#N)c(=O)[nH]1
TGI (DU-145 prostate): > 100 µM
TGI (IGROV1 ovarian): > 100 µM
TGI (MCF7 breast): > 100 µM
TGI (MDA-MB-435): > 100 µM
TGI (MOLT-4 leukemia): > 100 µM
TGI (NCI-H226 lung): > 100 µM
TGI (NCI-H23 lung): > 100 µM
TGI (NCI-H460 lung): > 100 µM
TGI (OVCAR-3 ovarian): > 100 µM
TGI (OVCAR-4 ovarian): > 100 µM
TGI (PC-3 prostate): > 100 µM
TGI (SF-295 CNS): > 100 µM
TGI (SK-OV-3 ovarian): > 100 µM
TGI (SN12C renal): > 100 µM
TGI (SW-620 colon): > 100 µM
TGI (T-47D breast): > 100 µM
TGI (UO-31 renal): > 100 µM

COc1ccc(-c2c(N)n(-c3nc4ccccc4s3)c(=O)c3cc([N+](=O)[O-])ccc23)cc1
TGI (MALME-3M melanoma): 93.7 µM
TGI (MCF7 breast): > 100 µM
TGI (MDA-MB-435): > 100 µM
TGI (MDA-N): > 100 µM
TGI (MOLT-4 leukemia): 49.2 µM
TGI (NCI-H226 lung): > 100 µM
TGI (NCI-H23 lung): 45.2 µM
TGI (NCI-H460 lung): 32.5 µM
TGI (OVCAR-3 ovarian): 35.4 µM
TGI (OVCAR-4 ovarian): 68.4 µM
TGI (PC-3 prostate): > 100 µM
TGI (SF-295 CNS): 97.1 µM
TGI (SK-OV-3 ovarian): 33 µM
TGI (SW-620 colon): > 100 µM
TGI (UO-31 renal): 46.7 µM

COc1cc2cc(C(=O)N3CC(CCl)c4ccc(O)cc43)[nH]c2c(OC)c1OC (stereo not given)
TGI (DU-145 prostate): 0.661 µM
TGI (MALME-3M melanoma): 0.0178 µM
TGI (MDA-MB-435): 0.0158 µM
GI50 (NCI-H226 lung): 0.116 µM
TGI (NCI-H226 lung): 0.0566 µM and 0.471 µM
TGI (NCI-H23 lung): 0.812 µM
TGI (OVCAR-3 ovarian): 0.015 µM
TGI (SF-295 CNS): 0.00398 µM
TGI (SN12C renal): 0.148 µM and 0.104 µM
TGI (SW-620 colon): 0.137 µM
TGI (T-47D breast): 0.547 µM
TGI (UO-31 renal): 0.0429 µM
